Reference: ChEMBL document CHEMBL3808341, “Natural nitric oxide (NO) inhibitors from Chloranthus japonicus” (Bioorg Med Chem Lett, 2016)

test system: RAW264.7; assay: Inhibition of LPS-induced NO production in mouse RAW264.7 cells at 50 uM after 24 hrs by Griess assay; assay type: functional; details: RAW264.7, 24 h

| SMILES | inhibition at 50 µM [%] |
| --- | --- |
| C=C1[C@H]2C[C@H]2[C@]2(C)[C@@H]3C[C@@]4(O)C5=C(C6=C(C)C(=O)O[C@]6(OC)[C@H](O)[C@@]5(C)[C@@H]5C[C@@H]54)[C@@]34OC(=O)C(C)=C4C[C@@H]12 | < 50 |
| C=C1[C@H]2C[C@H]2[C@]2(C)[C@@H]3C[C@@]4(O)C5=C(C6=C(C)C(=O)O[C@]6(O)[C@H](O)[C@@]5(C)[C@@H]5C[C@@H]54)[C@@]34OC(=O)C(C)=C4C[C@@H]12 | < 50 |
| C=C1[C@H]2C[C@H]2[C@@]2(C)[C@H]1[C@@H](OC(C)=O)C1=C(C)C(=O)O[C@@]13C1=C4[C@](C)([C@@H]5C[C@@H]5[C@@]4(O)C[C@H]32)[C@@H](O)C(=O)/C1=C(/C)C(=O)OC | < 50 |
| C=C1[C@H]2C[C@H]2[C@]2(C)[C@@H]3C[C@@]4(OO)C5=C(/C(=C(\C)C(=O)OC)C(=O)[C@H](O)[C@@]5(C)[C@@H]5C[C@@H]54)[C@@]34OC(=O)C(C)=C4C[C@@H]12 | < 50 |

test system: RAW264.7; assay: Inhibition of LPS-induced NO production in mouse RAW264.7 cells after 24 hrs by Griess assay; assay type: functional, cell-based; details: RAW264.7, 24 h

| IC50 [µM] | SMILES |
| --- | --- |
| 39.4 | C=C1[C@H]2C[C@H]2[C@]2(C)[C@@H]3C[C@@]4(O)C5=C(C6=C(C)C(=O)O[C@]6(OCCCC)[C@H](O)[C@@]5(C)[C@@H]5C[C@@H]54)[C@@]34OC(=O)C(C)=C4C[C@@H]12 |
| 43.2 | CO[C@]12OC(=O)C(C)=C1C1=C3[C@](C)([C@@H]4C[C@@H]4[C@@]3(O)C[C@@H]3[C@]14OC(=O)C1=C4C[C@H]4[C@](O)(COC(=O)/C(C)=C/COC(=O)CCC(=O)OC1)[C@H]1C[C@H]1[C@]34C)[C@H]2O |
| 24.4 | C=C1[C@H]2C[C@H]2[C@]2(C)[C@@H]3CC4=C5[C@H](/C(=C(\C)C(=O)OC)C(=O)C[C@@]5(C)[C@@H]5C[C@H]45)[C@@]34OC(=O)C(C)=C4C[C@@H]12 |
| 11.6 | C/C=C(\C)C(=O)OC[C@]1(O)[C@H]2C[C@H]2[C@]2(C)[C@@H]3CC4=C5[C@H](/C(=C(\C)C(=O)OC)C(=O)[C@H](O)[C@@]5(C)[C@@H]5C[C@H]45)[C@@]34OC(=O)C(COC(=O)CCC(=O)O)=C4C[C@@H]12 |
| 25.1 | C=C1[C@H]2C[C@H]2[C@@]2(C)[C@H]1[C@@H](OC(C)=O)C1=C(C)C(=O)O[C@@]13[C@@H]1C4=C(C[C@H]32)[C@H]2C[C@H]2[C@]4(C)[C@@H](O)C(=O)/C1=C(/C)C(=O)OC |
| 26.3 | C=C1[C@H]2C[C@H]2[C@]2(C)[C@@H]3CC4=C5[C@H](C(C(C)C(=O)OC)=C(O)C(=O)[C@@]5(C)[C@@H]5C[C@H]45)[C@@]34OC(=O)C(C)=C4C[C@@H]12 (some centres not stated) |
| 46.5 | C=C1[C@H]2C[C@H]2[C@]2(C)[C@@H]3[C@@H](O)C4=C5[C@H](/C(=C(\C)C(=O)OC)C(=O)[C@H](O)[C@@]5(C)[C@@H]5C[C@H]45)[C@@]34OC(=O)C(C)=C4C[C@@H]12 |
| 6.91 | COC(=O)/C(C)=C1\C(=O)[C@H](O)[C@]2(C)C3=C(C[C@@H]4[C@]5(OC(=O)C(CO)=C5C[C@H]5[C@H](COC(C)=O)[C@H]6C[C@H]6[C@]45C)[C@H]31)[C@H]1C[C@H]12 |

| SMILES | IC50 [µM] |
| --- | --- |
| C=C1[C@H]2C[C@H]2[C@]2(C)[C@@H]3CC4=C5[C@H](/C(=C(/C)C(=O)OC)C(=O)[C@H](O)[C@@]5(C)[C@@H]5C[C@H]45)[C@@]34OC(=O)C(C)=C4C[C@@H]12 | 26.5 |
| C=C1[C@H]2C[C@H]2[C@]2(C)[C@@H]3CC4=C5[C@H](/C(=C(\C)C(=O)OC)C(=O)[C@H](O)[C@@]5(C)[C@@H]5C[C@H]45)[C@@]34OC(=O)C(C)=C4C[C@@H]12 | 27 |
| O=c1c(O)c(-c2ccc(O)c(O)c2)oc2cc(O)cc(O)c12 [QUERCETIN] | 15.9 |
| COC(=O)/C(C)=C1\C(=O)[C@H](O)[C@]2(C)C3=C(C[C@@H]4[C@]5(OC(=O)C6=C5C[C@H]5[C@](O)(COC(=O)/C(C)=C/COC(=O)CCC(=O)OC6)[C@H]6C[C@H]6[C@]45C)[C@H]31)[C@H]1C[C@H]12 [SHIZUKAOL B] | 14.8 |
| COC(=O)/C(C)=C1\C(=O)[C@H](O)[C@]2(C)C3=C(C[C@@H]4[C@]5(OC(=O)C6=C5C[C@H]5[C@](O)(COC(=O)/C=C(\C)COC(=O)CCC(=O)OC6)[C@H]6C[C@H]6[C@]45C)[C@H]31)[C@H]1C[C@H]12 [SHIZUKAOL F] | 21 |
